Measurements taken from patent publication US20070166710A1, “Methods for inhibiting adipogenesis and for treating type 2 diabetes” (priority 2003, published 2007).

Legend:
Foxa-2 [1] = assay: Nuclear Foxa-2 in perfused livers, immunoblotting; type: in vivo, mice
Foxa-2 [2] = assay: Intracellular localization of Foxa-2 in hepatocytes after insulin injection into the portal vein; type: in vivo, mice
Experimental: Cryosections of livers ([…]) were fixed for 15 min at RT with 4% paraformaldehyde. For immunofluorescent detection of Foxa-2 or HA-Foxa-2, fixed sections were incubated with either anti-Foxa-2 antibody (1:100) or anti-HA antibody (Convance) (1:1000) overnight at 4° C. After washing, sections were treated with secondary antibody linked to Alexa Fluor 488 (Molecular Probes). For nuclear counterstaining, TOPRO-3 dye (Molecular Probes) was used. Immunofluorescent staining was visualized using laser-scanning micrsocopy.
The role of Foxa-2 in the regulation of liver gene expression by nutritional status was examined by determining the intracellular localization of Foxa-2 in fasted and fed mice by Western blotting of Foxa-2 in liver nuclear extracts and by immunohistochemistry. In fed mice, nuclear Foxa-2 levels were low, whereas after an overnight fast Foxa-2 expression in liver nuclei increased ^˜4 to 5-fold (FIG. 15a). […] Strong Foxa-2 immunostaining was detected in hepatocyte nuclei of control (PBS) mice. […] Foxa-2 protein levels were measured in liver nuclei of C57/B6 mice that were perfused with a buffer containing a range of insulin concentrations that included fasting and postprandial insulin levels (0.2 and 4.0 ng/ml, respectively). […] Foxa-2 levels were determined by immunoblotting. […]

Pepck, G6pc and Igfbp-1 = assay: mRNA levels of Foxa-2 target genes in primary hepatocytes (RT-PCR); type: cell-based; settings: insulin alone (50 nM, 6 hours)
Experimental: FIGS. 10a-d depict the effect of insulin on Foxa-2 activity. FIG. 10a is a bar graph depicting relative Foxa-2 activity in HepG2 cells transfected with an expression vector for Foxa-2 and […]-Luc (gray bars) or p6xCdx-TkLuc (black bars). Cells were treated with insulin alone or in the presence of Ly294002 or PD98059. FIG. 10b is a bar graph depicting relative Foxa-2 activity in HepG2 cells transfected with p6xCdx-TkLuc and treated with insulin alone or in the presence of Ly294002 or PD98059. […] FIG. 10d is a bar graph depicting relative Foxa-2 activity in HepG2 cells transfected with an expression vector for Foxa-1, Foxa-2, Akt or Akt[…] alone or in combination, using p6xCdx-TkLuc as reporter gene. In all experiments luciferase activity was normalized to β-Gal activity. […] Levels of mRNA were analyzed to determine whether inhibition of Foxa-2 target gene expression by insulin is controlled at a transcriptional or posttranscriptional level. The mRNA levels of Pepck, G6pc and Igfbp-1 in primary hepatocytes that were cultured either in the presence or absence of insulin, PI3-kinase or MAPKK1 inhibitors were measured.

Foxa-2 [3] = assay: Immunofluorescence of subcellular distribution of endogenous Foxa-2 in HepG2 cells; type: cell-based; settings: insulin 50 nM
Experimental: Immunofluorescence microscopy. Cells were fixed for 30 minutes at room temperature with 2% paraformaldehyde. For immunofluorescent detection of Foxa-1 or Foxa-2, fixed cells were incubated with respective polyclonal antibodies (1:100) (Ruiz i Altaba et al. (1993) Mech. Dev. 44: 91-108) overnight at 4° C. After washing, the cells were treated with anti rabbit IgG secondary antibody linked to Alexa Fluor 488 (Molecular Probes). Immunofluorescent staining was visualized using laser-scanning micrsocopy. To determine whether Akt-induced phosporylation of Foxa-2 has an effect on the subcellular distribution of this transcription factor, the following experiment was performed. HepG2 cells were grown to 60% confluency and endogenous Foxa-1 and Foxa-2 proteins were visualized by immunofluorescence after staining with anti Foxa-1 and Foxa-2 antibodies. Cells were either examined in the absence or presence of insulin (50 nM) and/or Ly294002 or PD98059, and after transfection with either Akt1 or Akt2 expression vectors (FIG. 5B). […] Treatment of cells with MAPKK1 inhibitor PD98059 had no effect on insulin stimulated nuclear exclusion of Foxa-2. The subcellular distribution of Foxa-2 in cells that were stimulated with insulin and expressed a dominant negative form of Akt (Akt[…]) were resistant to nuclear exclusion. […]

Substance: insulin: Insulin was from Sigma; hormone used as stimulus
- increase in nuclear Foxa-2 levels (Foxa-2 [1]; in response to insulin stimulation, within 5-20 minutes): > 20 fold
- change in nuclear Foxa-2 expression (Foxa-2 [1]; livers exposed to low (fasting) vs high (postprandial) insulin levels): > 20 fold
- nuclear Foxa-2 level (Foxa-2 [1]; perfusion with 2.0 ng/ml insulin, 20 minutes): barely detectable levels
- nuclei from which Foxa-2 was excluded (Foxa-2 [2]; 20 ng/ml insulin into the portal vein of fasted mice, after 5 minutes): ~80%
- localization of Foxa-2 in hepatocytes (Foxa-2 [2]; 15 minutes after insulin administration): located exclusively in the cytoplasm of all hepatocytes
- mRNA levels of Pepck, G6pc and Igfbp-1 (Pepck, G6pc and Igfbp-1): significantly reduced
- subcellular localization of endogenous Foxa-2 (Foxa-2 [3]): efficiently excluded from the nucleus
